Experimental data taken from ChEMBL document CHEMBL1140017, “Anti-AIDS agents 72. Bioisosteres (7-carbon-DCKs) of the potent anti-HIV lead DCK” (Bioorg Med Chem Lett, 2007).

Key:
[1] = Therapeutic index, IC50 for H9 cells to EC50 for HIV; assay type: cell-based; conditions: human, read-out: Ratio IC50/EC50
[2] = test system: H9; assay: Cytotoxicity against H9 cells assessed as growth inhibition; assay type: cell-based; conditions: Homo sapiens
[3] = test system: Human immunodeficiency virus; assay: Antiviral activity against HIV replication in H9 cells; assay type: functional, organism-based; conditions: Human immunodeficiency virus 1, H9

| EC50 [3] [nM] | SMILES | selectivity ratio [1] | IC50 [2] [nM] |
| --- | --- | --- | --- |
| 83 | Cc1cc(=O)oc2c3c(ccc12)CC[C@H](OC(=O)C12CCC(C)(C(=O)O1)C2(C)C)[C@@H]3OC(=O)C12CCC(C)(C(=O)O1)C2(C)C (stereo partly specified) | 659 | 54400 |
| 68 | CC12CCC(C(=O)O[C@H]3CCc4ccc5ccc(=O)oc5c4[C@H]3OC(=O)C34CCC(C)(C(=O)O3)C4(C)C)(OC1=O)C2(C)C (stereo partly specified) | 841 | 57200 |
| < 390 | Cc1cc(=O)oc2c3c(ccc12)CC(C)(C)[C@H](OC(=O)C12CCC(C)(C(=O)O1)C2(C)C)[C@@H]3OC(=O)C12CCC(C)(C(=O)O1)C2(C)C (stereo partly specified) | > 100 | > 39400 |
| 13.7 | Cc1cn([C@H]2C[C@H](N=[N+]=[N-])[C@@H](CO)O2)c(=O)[nH]c1=O [ZIDOVUDINE] | 36500 |  |
